Test results from patent US20260315464A1, “COMPOSITIONS, METHODS, AND SYSTEMS FOR MODULATING SPLICING OF MSH3” (REVIR THERAPEUTICS, INC., priority 2023, published 2026).

Experiments:
MSH3 Exon 21A = assay: Splicing and RNA expression changes, poison exon 21A (FIGS. 6-8); format: cell-based; conditions: FIG. 8; for total RNA: e.g., due to NMD
From the text: (§1) Poison exons were identified in endogenous MSH3 genome by employing a proprietary bioinformatics pipeline screening for cryptic exons in combination with examining poison exon candidates that could be regulated by an agent described herein or by nonsense mediated decay (NMD) using cycloheximide. FIG. 6 and FIG. 7 illustrate identification of Exon 21A, but not Exon 21B, as a poison exon that could be regulated by the agent described herein. FIG. 8 and FIG. 9 illustrate mutations that can be introduced into the poison exon (Exon 21A and Exon 14A_1 or Exon 14A_2, respectively), where the mutated nucleotide bases (e.g., CAG) could further enhance the suppression of the MSH3 expression. Such mutations can be utilized as a method or a system for screening additional candidate agents. FIG. 8 illustrates splicing and RNA expression changes for targets regulated by an agent described herein. […] FIG. 8 also illustrates how mutating a poison exon (e.g., from ATA to CAG) increased percentage of splice inclusion of Exon 21A from 0.13 to 0.98. Such mutations can be useful for designing a method or a system for screening additional agents for modulating splicing in of poison exon into a mRNA (e.g., as shown in FIG. 10). FIG. 9 illustrates splicing and RNA expression changes for targets regulated by an agent described herein. […] FIG. 9 also illustrates how mutating the poison exon (e.g., from TGA to CAG) increased percentage of splice inclusion of Exon 14A_1 from 0.00 to 0.59. Such mutations can be useful for designing a method or a system for screening additional agents for modulating splicing in of poison exon into a mRNA (e.g., as shown in FIG. 10). […] FIG. 10A illustrates engineered minigene donor (e.g., by mutating endogenous trinucleotides to CAG as shown in FIG. 8 and FIG. 9) for driving expression of a luciferase reporter gene. FIG. 10B illustrates minigene PCR showing the presence of the poison exon comprising the CAG mutation. […] FIG. 10C illustrates increased luciferase signal generated by the presence of the minigene comprising the poison exon comprising the CAG mutation.

[1] = test system: MSH3 Exon 14A_1 or Exon 14A_2; assay: Splicing and RNA expression changes, poison exon 14A_1 or 14A_2 (FIG. 9); format: cell-based; conditions: for total RNA: e.g., due to NMD
From the text: as §1

MSH3 exons 13/14 mRNA = assay: qPCR of total MSH3 exons 13/14 in HEK293 WT and PE14A CAG clones (FIG. 11A); format: cell-based, human
Experimental: (§2) In this example, MSH3 poison exon 14A (PE5) and poison exon 21A (PE4) were validated. Briefly, HEK293 parental and clonal cells (Synthego) were cultured in DMEM (ThermoFisher Scientific) supplemented with 10% fetal bovine serum (Avantor) and 0.1 μg/mL Primocin (Invivogen). All cell lines were maintained at sub-confluency and grown in a humidified incubator at 37° C. with 5% CO2. HEK293 clonal cells were generated by Synthego's proprietary CRISPR methods to replace PE14A 5′ splice site with a strong donor (TGAGTTG>CAGGTTA) at the endogenous locus. Two clones (C3 and H2) were isolated to express 99-100% of the desired knock-in mutation. Two clones were generated from the parental line HEK293 without any editing (wild-type WTl3 and WT7) to be used as controls. […] RNA, cDNA and qPCR was prepared using TaqMan Cells-to-CT Express kit (ThermoFisher Scientific). Taqman assays (ThermoFisher Scientific) were used for quantification of total MSH3 exons 13/14 (cat #4351372, ID #: Hs00988993_ml), total MSH3 exons 20/21 (cat #4351372, ID #: Hs00989000_ml), exon 13/PE14A (Fwd: 5′-[…] (SEQ ID NO: 14); Rev: 5′-[…] (SEQ ID NO: 15); Probe: 5′-[…] (SEQ ID NO: 16)) and exon 20/PE21A (Fwd: 5′-[…] (SEQ ID NO: 17); Rev: 5′-[…] (SEQ ID NO: 18); Probe: 5′-[…] (SEQ ID NO: 19)) mRNA expression. […] Protein concentrations were determined by Rapid Gold BCA (ThermoFisher Scientific). […]

[2] = test system: MSH3 exon 13/PE14A mRNA (PE5); assay: qPCR of MSH3 PE5 (exon 13/PE14A) in HEK293 WT and PE14A CAG clones (FIG. 11B); format: cell-based, human
Experimental: as §2

MSH3 exons 20/21 mRNA = assay: qPCR of total MSH3 exons 20/21 in HEK293 WT and PE14A CAG clones (FIG. 12A); format: cell-based, human; conditions: HEK293 wild-type clones, 24 hours
Experimental: as §2

[3] = test system: MSH3 exon 20/PE21A mRNA (PE4); assay: qPCR of MSH3 PE4 (exon 20/PE21A) in HEK293 WT and PE14A CAG clones (FIG. 12B); format: cell-based, human; conditions: HEK293 wild-type clones, 24 hours
Experimental: as §2

MSH3 protein = assay: Western blot of MSH3 protein in HEK293 WT and PE5 CAG clones (FIG. 12C); format: cell-based, human
Experimental: as §2

MSH3 poison exon 14A [4] = assay: RT-PCR of MSH3 exon 13/PE14A and PE14A/exon 14 amplicons in cynomolgus monkey fibroblasts (FIG. 13); format: cell-based; conditions: 24 hours
Experimental: (§3) To further validate MSH3 poison exon 14A, RT-PCR was used to analyze MSH3 exon 13/poison exon 14A, and poison exon 14A/exon 14 amplicons. Briefly, Cynomolgus monkey primary dermal fibroblasts (Cellosaurus) and HEK293 cells (ATCC) were cultured in DMEM (ThermoFisher Scientific) supplemented with 10% fetal bovine serum (Avantor) and 0.1 μg/mL Primocin (Invivogen). All cell lines were maintained at sub-confluency and grown in a humidified incubator at 37° C. with 5% CO2. RNA was purified using Qiashredder and RNeasy kits (Qiagen), cDNA was prepared with MultiScribe Reverse Transcriptase (ThermoFisher Scientific) and PCR with GoTaq Green Master Mix (Promega). Primers (IDT) used were the following: Fwd-Exon 13 (5′-[…] (SEQ ID NO: 20)), Rev-PE14A (5′-[…] (SEQ ID NO: 21)), Fwd-PE14A (5′-[…] (SEQ ID NO: 22)), Rev-Exon 14 (5′-[…] (SEQ ID NO: 23)), Fwd-GAPDH (5′-[…] (SEQ ID NO: 24)), Rev-GAPDH (5′-ACCCGTTGACTCCGACCT (SEQ ID NO: 25)).

MSH3 poison exon 14A [5] = assay: RT-PCR of MSH3 exon 13/PE14A and PE14A/exon 14 amplicons in HEK293 cells (FIG. 13); format: cell-based, human; conditions: 24 hours
Experimental: as §3

MSH3 = assay: QPCR assay for levels of MSH3 upon compound treatment in HEK293T or AD293 cells (fold-change of MSH3 transcript, EC50 of MSH3 downregulation; total MSH3 exons 13/14, exons 20/21; Table 8); format: cell-based; conditions: Homo sapiens, fold-change of the MSH3 transcript, normalized to GAPDH; for mrna remaining at 1 µM: 1 μM compound; for mrna remaining at 10 µM: 10 μM compound
Procedure, shortened: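 HEK293T or AD293 cells were treated at 1 μM and […]; RNA-to-cDNA qPCR used TaqMan assays for total MSH3 (exons 13/14, exons 20/21) and poison-exon junctions exon 13/PE14A and exon 20/PE21A. Transcript levels were normalized to GAPDH.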

[6] = HEK293 wild-type clones, 24 hours

Row | SMILES | poison exon expression (Exon 21A) (MSH3 Exon 21A) | total RNA (MSH3 Exon 21A) | poison exon expression (Exon 14A_1 or Exon 14A_2) [1] | total RNA [1] | mrna remaining at 1 µM (MSH3) [%] | mrna remaining at 10 µM (MSH3) [%] | other results
1 | CN(c1ccc(N2Cc3cnc(-c4cnn(C)c4)cc3C2=O)nn1)C1CCNCC1 [Compound 1, 2-(6-(methyl(piperidin-4-yl)amino)pyridazin-3-yl)-6-(1-methyl-1H-pyrazol-4-yl)-2,3-dihydro-1H-pyrrolo[3,4-c]pyridin-1-one] | increased poison exon expression | decreased total RNA | increased poison exon expression | decreased total RNA |  |  | 
2 | C[C@@H]1C[C@@H]([C@H](O)CC2CC(=O)NC(=O)C2)C(=O)[C@@H](C)C1 [CHX, cycloheximide, reference compound] | increased poison exon expression | decreased total RNA | increased poison exon expression | decreased total RNA |  |  | 
3 | Cc1nn(C)cc1-c1cc(F)c2c(c1)C(=O)N(c1ccc(N(C)[C@H]3C[C@]4(C)CC[C@](C)(C3)N4)nn1)C2 [Compound A] |  |  |  |  |  |  | MSH3 expression (total, exons 13/14) (MSH3 exons 13/14 mRNA; [6]): lowering MSH3 expression; MSH3 expression (total, exons 13/14) (MSH3 exons 13/14 mRNA; PE5 CAG clones C3 and H2, 24 hours): No further decrease; PE5-specific expression [2, 6]: increasing PE5-specific expression; further increase of PE5 ([2]; PE5 CAG clones C3 and H2, 24 hours, starting at 0.3-1 μM): 20-30%; MSH3 expression (total, exons 20/21) (MSH3 exons 20/21 mRNA): lowering MSH3 expression; PE4-specific expression [3]: increasing PE4-specific expression; MSH3 protein levels (MSH3 protein; PE5 CAG clones): decreased in MSH3 levels; MSH3 protein levels (MSH3 protein; wild-type clones): decreased in MSH3 levels; 13/PE14A amplicon (MSH3 poison exon 14A [4]): increase; PE14A/14 amplicon (MSH3 poison exon 14A [4]): increase; 13/PE14A amplicon (MSH3 poison exon 14A [5]): increase; PE14A/14 amplicon (MSH3 poison exon 14A [5]): increase
4 | COc1cc(-c2nn(C)nc2C)cc2c1CN(c1ccc(OC3CC(C)(C)NC(C)(C)C3)nn1)C2=O [Compound 688, 6-(2,5-dimethyl-2H-1,2,3-triazol-4-yl)-4-methoxy-2-(6-((2,2,6,6-tetramethylpiperidin-4-yl)oxy)pyridazin-3-yl)isoindolin-1-one] |  |  |  |  | 123 | 86 | 
5 | Cn1nc(Cl)c(-c2cc(F)c3c(c2)C(=O)N(c2ccc(N4CC5CCC(C4)N5)nn2)C3)n1 [Compound 653, 2-(6-(3,8-diazabicyclo[3.2.1]octan-3-yl)pyridazin-3-yl)-6-(5-chloro-2-methyl-2H-1,2,3-triazol-4-yl)-4-fluoroisoindolin-1-one] |  |  |  |  | 93 | 27 | 
6 | CN(c1ccc(N2Cc3ncc(-c4cnn(C)c4)cc3C2=O)nn1)C1CC(C)(C)NC(C)(C)C1 [Compound 148, 6-(6-(methyl(2,2,6,6-tetramethylpiperidin-4-yl)amino)pyridazin-3-yl)-3-(1-methyl-1H-pyrazol-4-yl)-6,7-dihydro-5H-pyrrolo[3,4-b]pyridin-5-one] |  |  |  |  | 103 | 40 | 
